Experimental findings from patent publication US12115229B2, “Nanosystems for controlled transport of active molecules for diagnostic, prognostic and therapeutic purposes” (FIDIA FARMACEUTICI S.P.A., priority 2015, dated 2024) are described below.

The assay has as its system tumour cell line 4T1 (breast cancer). Briefly: In vitro MTT cytotoxicity assay, 4T1. The format is cell-based. The method, then:
The cytotoxic activity of Doxo-Hyalusphere was tested on tumour cell lines 4T1 (breast cancer) and A549 (lung cancer), using the in vitro MTT assay.
For the purpose of the test, cell line 4T1 was cultured in RPMI medium (Gibco) and A549 in DMEM (Gibco). 10% FBS (foetal bovine serum, Gibco), 1% L-glutamine (Gibco) and 1% penicillin/streptomycin (Gibco) were added to both culture media at the temperature of 37° C. in the presence of 5% CO2.
The cells were plated in 24-well microplates (Nunc) (50000 cells per well in 500 μl of medium). After 12 hours, 100 μl of culture medium containing the various conditions studied was added to each well: • 1) Nanoparticles with PEG (PEG-NP); • 2) Nanoparticles with rHyal_Sk (Hyal-NP); • 3) Doxorubicin in solution (Free DOX); • 4) Doxorubicin bonded to nanoparticles (DOX-NP) • 5) Doxo-HyaluSpheres (DOX-Hyal-NP),
The nanoparticle concentrations were established at 40000 per cell, and the plates were incubated for 24 and 96 hours. […]
Metabolic activity was evaluated after 30 minutes by reading the optical density (OD) with an ELISA Reader (Bio-Rad) spectrophotometer at the wavelength of 570 nm. […] The fraction of viable cells was determined on the basis of the ratio between the mean optical density of the treated samples and that of the untreated control sample.
In general terms: Tetrazolium assays rely on reduction of a dye to a coloured formazan, in cell work by metabolically active cells.

`COc1cccc2c1C(=O)c1c(O)c3c(c(O)c1C2=O)C[C@@](O)(C(=O)CO)C[C@@H]3O[C@H]1C[C@H](N)[C@H](O)[C@H](C)O1` [Free-DOX, Doxorubicin]: the “tumour cell survival compared with the doxorubicin nanosystems” value (free doxorubicin 0.75 μg/mL) was “Quantitatively identical results”. The cell death result (free drug equivalent to 3 nM (1.6 ng/mL), 24 and 96 hours) is reported as “did not lead to cell death”.
